Results from ChEMBL document CHEMBL3045004, “Design, synthesis and in vitro antibacterial and antifungal activities of some novel spiro[azetidine-2,3-indole]-2,4(1H)-dione” (2011).
Values after ≈ are worked out from the molar mass of the structure shown. Active and inactive are the calls of the source. The rule behind the calls is not given here.

What was measured:
Aspergillus niger [1] = assay: Antifungal activity against Aspergillus niger MTCC-343 after 3 to 4 days by serial plate dilution method; type: functional; conditions: for MIC: Aspergillus niger, MTCC-343
Candida albicans [2] = assay: Antifungal activity against Candida albicans MTCC-183 after 3 to 4 days by serial plate dilution method; type: functional; conditions: for MIC: Candida albicans, MTCC-183
Pseudomonas aeruginosa = assay: Antibacterial activity against Pseudomonas aeruginosa MTCC-647 after 24 hr by disk-diffusion method; type: functional
Escherichia coli = assay: Antibacterial activity against Escherichia coli MTCC-521 after 24 hr by disk diffusion method; type: functional
Staphylococcus aureus = assay: Antibacterial activity against Staphylococcus aureus MTCC-96 after 24 hr by disk-diffusion method; type: functional
Aspergillus niger [3] = assay: Antifungal activity against Aspergillus niger MTCC-343 at >100 ug/ml after 3 to 4 days by serial plate dilution method; type: functional, organism-based
Candida albicans [4] = assay: Antifungal activity against Candida albicans MTCC-183 at >100 ug/ml after 3 to 4 days by serial plate dilution method; type: functional, organism-based
[5] = Pseudomonas aeruginosa, MTCC-647, 24 h
[6] = Escherichia coli, MTCC-521, 24 h
[7] = Staphylococcus aureus, MTCC-96, 24 h

Compound	inhibition zone (IZ) (Aspergillus niger [1]) [mm]	MIC (Aspergillus niger [1]) [µg/mL]	inhibition zone (IZ) (Candida albicans [2]) [mm]	MIC (Candida albicans [2]) [µg/mL]	diameter of the inhibition zone (DIZ) (Pseudomonas aeruginosa) [mm]	MIC (Pseudomonas aeruginosa; [5]) [µg/mL]	diameter of the inhibition zone (DIZ) (Escherichia coli) [mm]	MIC (Escherichia coli; [6]) [µg/mL]	diameter of the inhibition zone (DIZ) (Staphylococcus aureus) [mm]	MIC (Staphylococcus aureus; [7]) [µg/mL]	Activity (Aspergillus niger [3])	MIC (Pseudomonas aeruginosa) [µg/mL]	MIC (Escherichia coli) [µg/mL]	MIC (Staphylococcus aureus) [µg/mL]	Activity (Candida albicans [4])
Cc1ccc(N2C(=O)C(Cl)C23C(=O)Nc2ccccc23)cc1 (stereo unspecified)	22	6.25 (≈ 20 µM)	16	12.5 (≈ 40 µM)	17	25 (≈ 79.9 µM)	20	25 (≈ 79.9 µM)	19	25 (≈ 79.9 µM)					
Cc1ccc(N2C(=O)C(Cl)C23C(=O)Nc2c(Br)cc(Br)cc23)cc1 (stereo unspecified)			16	12.5 (≈ 26.6 µM)	26	6.25 (≈ 13.3 µM)	22	12.5 (≈ 26.6 µM)	24	6.25 (≈ 13.3 µM)	inactive				
O=C1C(Cl)C2(C(=O)Nc3c(Br)cc(Br)cc32)N1c1ccc([N+](=O)[O-])cc1 (stereo unspecified)	23	6.25 (≈ 12.5 µM)	26	6.25 (≈ 12.5 µM)	28	6.25 (≈ 12.5 µM)	24	6.25 (≈ 12.5 µM)	28	6.25 (≈ 12.5 µM)					
O=C1C(Cl)C2(C(=O)Nc3ccccc32)N1c1ccccc1 (stereo unspecified)	22	12.5 (≈ 41.8 µM)	23	6.25 (≈ 20.9 µM)	18	25 (≈ 83.7 µM)	19	25 (≈ 83.7 µM)	21	12.5 (≈ 41.8 µM)					
Cc1ccccc1N1C(=O)C(Cl)C12C(=O)Nc1ccccc12 (stereo unspecified)	24	6.25 (≈ 20 µM)	11	25 (≈ 79.9 µM)	17	25 (≈ 79.9 µM)	19	25 (≈ 79.9 µM)	22	12.5 (≈ 40 µM)					
GENTAMICIN												6.25	6.25	6.25	
CCC(C)n1ncn(-c2ccc(N3CCN(c4ccc(OCC5COC(Cn6cncn6)(c6ccc(Cl)cc6Cl)O5)cc4)CC3)cc2)c1=O (stereo unspecified) [ITRACONAZOLE]	25	6.25 (≈ 8.86 µM)	27	6.25 (≈ 8.86 µM)											
CC1(C)S[C@@H]2[C@H](NC(=O)[C@H](N)c3ccc(O)cc3)C(=O)N2[C@H]1C(=O)O [AMOXICILLIN]					30	6.25 (≈ 17.1 µM)	25	6.25 (≈ 17.1 µM)	29	6.25 (≈ 17.1 µM)					
O=C1C(Cl)C2(C(=O)Nc3ccccc32)N1c1ccc([N+](=O)[O-])cc1 (stereo unspecified)	24	6.25 (≈ 18.2 µM)	25	6.25 (≈ 18.2 µM)	17	25 (≈ 72.7 µM)	20	25 (≈ 72.7 µM)	19	25 (≈ 72.7 µM)					
O=C1C(Cl)C2(C(=O)Nc3ccccc32)N1c1ccccc1[N+](=O)[O-] (stereo unspecified)	17	12.5 (≈ 36.4 µM)			19	25 (≈ 72.7 µM)	21	12.5 (≈ 36.4 µM)	17	12.5 (≈ 36.4 µM)					inactive
OC(Cn1cncn1)(Cn1cncn1)c1ccc(F)cc1F [FLUCONAZOLE]	26	6.25 (≈ 20.4 µM)	27	6.25 (≈ 20.4 µM)											
Cc1ccccc1N1C(=O)C(Cl)C12C(=O)Nc1c(Br)cc(Br)cc12 (stereo unspecified)	17	12.5 (≈ 26.6 µM)	19	6.25 (≈ 13.3 µM)	24	12.5 (≈ 26.6 µM)	23	6.25 (≈ 13.3 µM)	23	6.25 (≈ 13.3 µM)					
CN[C@@H]1[C@H](O[C@H]2[C@H](O[C@H]3[C@H](O)[C@@H](O)[C@H](N=C(N)N)[C@@H](O)[C@@H]3N=C(N)N)O[C@@H](C)[C@]2(O)C=O)O[C@@H](CO)[C@H](O)[C@H]1O [STREPTOMYCIN]					31	6.25 (≈ 10.7 µM)	26	6.25 (≈ 10.7 µM)	31	6.25 (≈ 10.7 µM)					
O=C1C(Cl)C2(C(=O)Nc3c(Br)cc(Br)cc32)N1c1ccccc1[N+](=O)[O-] (stereo unspecified)	14	25 (≈ 49.8 µM)	19	6.25 (≈ 12.5 µM)	27	6.25 (≈ 12.5 µM)	21	6.25 (≈ 12.5 µM)	27	6.25 (≈ 12.5 µM)					
O=C1C(Cl)C2(C(=O)Nc3c(Br)cc(Br)cc32)N1c1ccccc1 (stereo unspecified)	14	25 (≈ 54.8 µM)	17	12.5 (≈ 27.4 µM)	26	12.5 (≈ 27.4 µM)	21	12.5 (≈ 27.4 µM)	24	6.25 (≈ 13.7 µM)					
